Patent US20050214376A1, “Hydrogel-containing medical articles and methods of using and making the same” (priority 2003, published 2005)

Experiments:
human skin [1] = settings: 107 subjects
Source text: Subjects fulfilled specific inclusion criteria including not being pregnant or breastfeeding, being over 18 years old, having healthy skin, and not having used any dermatological or cosmetic preparation on the test area within 5 days before the beginning of the study.
Briefly, the tested hydrogels were applied under occlusion on the outer aspect of the upper arm for a defined time. The applications were repeated 9 times over a period of 3 consecutive weeks, a duration necessary for the possible induction of an immune response. The irritancy potential was evaluated and compared to the irritancy potential of the standard, SLS. After a two-week rest period with no treatment, the tested hydrogels were applied under occlusion to the induction site and to a virgin site on the volar side of the underarm for a defined period of time to trigger a possible immune response.
The final pH of the hydrogels was adjusted to about 5.5.
Possible skin reactions to the products were scored according to the scale reproduced in Table 5 above.
In summary, the test product is considered to have a low sensitization potential if none of the subjects reported a grade 2 or higher dermal response on days 38 to 40 and no more than two subjects reported a grade 1 dermal response on days 38 to 40. A moderate sensitization potential is assigned if a maximum of 2 subjects reported a grade 2 or higher dermal response on days 38 to 40 and a maximum of 4 subjects reported a grade 1 response on days 38 to 40. A high sensitization potential is assigned if 3 or more subjects reported a grade 2 or higher dermal response on days 38 to 40 and 5 or more subjects reported a grade 1 response on days 38 to 40.
The cumulative irritancy score represents the sum of the irritancy scores assigned on days 3, 5, 8, 10, 12, 15, 17, 19, and 22. […] An irritancy score was assigned to each induction and virgin site on days 36, 38, 39 and 40, and their respective scores were added up separately to produce the cumulative irritancy score presented in the fourth column of Table 10. The fifth and sixth columns indicate the number of subjects that experienced a grade 2 or greater response on each of days 38, 39 and 40, and the number of subjects that experienced a grade 1 response on each of days 38, 39, and 40.

human skin [2] = settings: both, in vivo
[3] = Uptake rates of active agents into hydrogel samples; format: physicochemical; settings: for time to reach the same concentration in the hydrogel as the uptake solution: 1 mm hydrogel samples, methylene blue 1 ppm, p-nitrophenol 0.4 wt. %
Procedure: Uptake solutions of methylene blue (1 ppm) and p-nitrophenol (0.4 wt. %) were prepared. […] The hydrogels were then carefully blotted of excess solution and were each transferred into a second beaker containing 30 ml of a 10 mM phosphate buffer solution with a pH of 6 to equilibrate.
The hydrogels were continuously agitated to ensure that the equilibrium state was reached. The uptake of p-nitrophenol and methylene blue was assumed to correspond to the amount that was released into the washing buffer solution. […] Methylene blue was similarly measured at 655 nm and the calibration curve was in the range of 0.0025 ppm to 3 ppm.

Structure (SMILES)	Cumulative Irritancy Score (human skin [1]; 22-day induction phase)	Number of reacting subjects (human skin [1]; 22-day induction phase)	Type of Reactivity (human skin [1]; 22-day induction phase)	subjects with slight glazed appearance and/or marked glazing (human skin [1]; induction phase)	C: Glazing with peeling & cracking, number of subjects (human skin [2])	D: Glazing with fissures, number of subjects (human skin [2])	E: Film of dried serious exudate covering all or part of the patch site, number of subjects (human skin [2])	F: Small petechial erosions and/or scabs, number of subjects (human skin [2])	Maximum single score (human skin [2])	Maximum sum (human skin [2])	Minimum single score (human skin [2])	Minimum sum (human skin [2])	N (reacting subjects) (human skin [2])	Slight itch, number of subjects (human skin [2])	Sum of scores for dermal reactions (human skin [2])	time to reach the same concentration in the hydrogel as the uptake solution [3]	concentration in hydrogel relative to the initial uptake solution ([3]; within an hour) [times]
CCCCCCCCCCCCOS(=O)(=O)[O-].[Na+] [Positive Control, sodium lauryl sulphate]	21	11	Minimal erythema	20	0	0	0	0	1	3	0	0	19	0	23.00	–	–
CN(C)c1ccc2nc3ccc(=[N+](C)C)cc-3sc2c1 [methylene blue]	–	–	–	–	–	–	–	–	–	–	–	–	–	–	–	less than 1.50 minutes	6
O=[N+]([O-])c1ccc(O)cc1 [p-nitrophenol]	–	–	–	–	–	–	–	–	–	–	–	–	–	–	–	about 15 minutes	–
